In patent US8193200B2, “Antagonists of A2B adenosine receptors for treatment of inflammatory bowel disease” (University of Virginia Patent Foundation, priority 2007, dated 2012):

Legend:
[1] = system: myeloperoxidase (MPO) activity, neutrophil infiltration into colon; experiment: Myeloperoxidase assay in colon, DSS colitis; type: in vivo, mouse; settings: DSS 3% 6 days, ATL-801 10 mg/kg in diet
Protocol: Neutrophil infiltration into colon was quantified by measuring myeloperoxidase (MPO) activity as described previously. One unit of MPO activity was defined as the amount that degraded 1 μmol of […] per minute at 25° C. The results were expressed as absorbance per μg of protein.

[2] = system: colonic crypt epithelial cells; experiment: ki67 proliferation and TUNEL apoptosis staining, IL-10-/- model; type: in vivo, mouse; settings: IL-10-/- mice, piroxicam+ATL-801
Protocol: Apoptosis: Apoptotic cells were determined in colonic crypts of the mice that received ATL-801. Apoptotic cells were identified by fluorescent double staining using caspase-3 and terminal deoxyuridine nick-end labeling (TUNEL) as a secondary method to detect apoptosis. After deparaffinization and hydration, paraffin sections of colon were retrieved for antigens in a pressure cooker with sodium citrate (pH 6.0, 10 mM) for 10 min. After cooling, the sections were quenched in 3% H2O2 in methanol and then blocked with normal goat serum. Caspase-3 was detected with rabbit anti-cleaved-caspase-3 IgG overnight at 4° C. followed by a labeled streptavidin-biotin (LSAB) staining method consisting of successive application of secondary antibody-streptavidin, biotin-horseradish peroxidase, and cyanine-3 tyramide. TUNEL immunohistochemistry was performed using the in situ cell death detection kit, fluorescein, as described by the manufacturer (Roche Applied Science, Indianapolis, Ind.). For IL-10 model, frozen sections were used to stain cleaved caspase 3 and TUNEL. Nuclei were attained by Hoechst to count total crypt cell number. The apoptotic index for both morphologically defined apoptotic cells and fluorescent staining with caspase-3 was calculated as the number of apoptotic cells per crypt. […]

T84 cells = experiment: Flagellin-induced IL-8 secretion in T84 cells (ELISA); type: cell-based
A2b receptor expression = experiment: Western blot of A2b receptor in colonic lysates, DSS model; type: in vivo, mouse; settings: baseline and after DSS treatment
Description: Colonic tissue was homogenized and cell lysates were subjected to immunoblotting using anti-A2b receptor antibody (1:1000). β-tubulin was used as loading control. Blot shown is representative of 4 animals per condition.

A2b receptor [3] = target: T1, A2b receptor (Mus musculus, UniProt Q60614); experiment: Ussing chamber Isc (chloride secretion) in murine colonic mucosal stripping; settings: mouse colonic mucosa
T1 construct: Murine colonic mucosal stripping from the distal colon was mounted on Ussing chamber; from tissue; host or cells: mouse distal colon mucosa, stripped of external muscle
T1 sequence (Q60614 1-332): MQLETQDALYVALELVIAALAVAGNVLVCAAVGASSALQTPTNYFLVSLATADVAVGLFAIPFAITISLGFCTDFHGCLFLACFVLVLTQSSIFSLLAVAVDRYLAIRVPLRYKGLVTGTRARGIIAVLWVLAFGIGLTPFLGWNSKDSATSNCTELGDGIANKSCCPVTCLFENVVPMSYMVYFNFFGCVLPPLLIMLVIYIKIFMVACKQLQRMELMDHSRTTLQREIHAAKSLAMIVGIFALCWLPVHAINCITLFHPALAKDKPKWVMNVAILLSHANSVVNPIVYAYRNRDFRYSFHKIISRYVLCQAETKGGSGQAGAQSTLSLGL
Protocol: Electrophysiologic studies were performed as described previously Mice were euthanized by CO2/hypothermia. The colon was removed and opened along the mesenteric border. The colon was then stripped of its external muscle by blunt dissection. A of mucosa from distal colon was used for Using chamber studies. After a sustained baseline Isc, mucosal layers were stimulated with adenosine (100 μM) and forskolin (FSK 10 μM). Antagonist was added to both bathing solutions before stimulating with adenosine.

A2b receptor [4] = target: T2, A2b receptor (Homo sapiens, UniProt P29275); experiment: cAMP measurement in adenosine-stimulated T84 cells; type: cell-based; settings: T84 monolayers, adenosine 100 μM, ATL-801 100 μM; unstimulated 1.7±0.05, adenosine alone 4.7±0.66
T2 construct: endogenous in cells; host or cells: T84 cells
T2 sequence (P29275 1-332): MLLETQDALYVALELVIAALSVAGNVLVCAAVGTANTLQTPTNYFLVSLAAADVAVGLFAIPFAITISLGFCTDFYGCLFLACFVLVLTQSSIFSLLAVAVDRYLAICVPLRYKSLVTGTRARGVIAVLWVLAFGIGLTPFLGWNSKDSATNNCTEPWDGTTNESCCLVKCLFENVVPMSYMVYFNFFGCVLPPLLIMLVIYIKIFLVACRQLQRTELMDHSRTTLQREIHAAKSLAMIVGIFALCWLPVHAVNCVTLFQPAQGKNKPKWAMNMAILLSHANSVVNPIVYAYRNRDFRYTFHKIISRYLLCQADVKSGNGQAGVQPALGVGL
Protocol: T84 cells were stimulated with adenosine (100 μM) or forskolin (10 μM) for 7 min, with or without ATL-801 (100 μM). Total cell lysates were processed in the presence of IBMX (phosphodiesterase inhibitor). cAMP levels were measured in whole cell lysates using a competitive cAMP immunoassay kit (Applied Biosystems, Bedford, Mass.) according to the manufacturer's instructions. Luminescence was read with a Luminoscan Ascent plate reader (Thermo Labsystems, Needham Heights, Mass.).

`CCCn1c(=O)n(C2CC2)c(=O)c2[nH]c(-c3ccc(N(CC)C(=O)c4cccnc4)nc3)nc21` [ATL-801] was tested, and the “MPO activity, DSS alone relative to antagonist and DSS” value [1] was 5 fold, the “TUNEL positive cells out of total (around 500) number of cells counted in each crypt” value ([2]; control 4.7±1.5, piroxicam 4.3±2.3) was 10±1.0 and the “proliferation index, ki67 positive staining” value ([2]; control 8.0±0.7, piroxicam alone 28.8±2.8) was 18.5±1.4. For the same molecule, the “inhibition of flagellin-induced IL-8 secretion” value (T84 cells; ATL-801 100 μM 30 min, then flagellin 100 ng/ml 5 hours) was 60%, the IL-8 in media, Flagellin+ATL-801 (T84 cells; ATL-801 100 μM, flagellin 100 ng/ml 5 h, control 206±18.5, flagellin 1126) was 769 ± 13.6 pg/mL and the IL-8 in media, ATL-801 alone (T84 cells; ATL-801 100 μM, no flagellin, control 206±18.5) was 101 ± 34.6 pg/mL. The “effect on A2b receptor expression (Western blot)” value (A2b receptor expression) was “affected neither baseline level of A2b receptor nor DSS-induced increase in A2b receptor expression”, the “ΔIsc, ATL-801+Adenosine” value (A2b receptor [3]; ATL-801 100 μM before adenosine 100 μM, adenosine alone 7.9 μA) was 1.9 μA and the “ΔIsc, ATL-801+FSK” value (A2b receptor [3]; ATL-801 100 μM, forskolin 10 μM) was 10 μA. The “adenosine mediated cAMP levels, adenosine+ATL-801” value (A2b receptor [4]) was 0.2±0.06 pmoles/10^6 cells.
